Data as given in patent US10662195B2, “Protein kinase conjugates and inhibitors” (Celgene Avilomics Research, Inc., priority 2009, dated 2020).
Read-outs that look alike come from different tables or passages of the source.

How the values were obtained:
KDR = KDR (Homo sapiens, UniProt P35968); assay: KDR Omnia continuous-read kinase assay; assay type: biochemical; set-up: purchased Invitrogen or BPS Bioscience PV3660 or 40301
Experimental: (§1) A. KDR and FLT-3 Omnia Assay for Potency Assessment:
(§2) The protocol below describes a continuous-read kinase assay to measure inherent potency of Avila Therapeutics' compounds against active KDR and FLT-3 enzymes. The assay was performed substantially as described by the vendor (Invitrogen, Carlsbad, Calif.; http://www.invitrogen.com/content.cfm?pageid=11338.)
Briefly, 10× stocks of KDR from Invitrogen or BPS Bioscience (PV3660 or 40301) and FLT-3 (PV3182) enzymes, 1.13×ATP (AS001A) and Y9-Sox or Y12-Sox peptide substrates (KCZ1001) were prepared in 1× kinase reaction buffer consisting of 20 mM Tris, pH 7.5, 5 mM MgCl2, 1 mM EGTA, 5 mM β-glycerophosphate, 5% glycerol (10× stock, KB002A) and 0.2 mM DTT (DS001A). 5 μL of enzyme were pre-incubated in a Corning (#3574) 384-well, white, non-binding surface microtiter plate (Corning, N.Y.) for 30 min at 27° C. with a 0.5 μL volume of 50% DMSO and serially diluted compounds prepared in 50% DMSO. Kinase reactions were started with the addition of 45 μL of the ATP/Y9 or Y5-Sox peptide substrate mix and monitored every 30-90 seconds for 60 minutes at λex360/λem485 in a Synergy^4 plate reader from BioTek (Winooski, Vt.). At the conclusion of each assay, progress curves from each well were examined for linear reaction kinetics and fit statistics (R^2, 95% confidence interval, absolute sum of squares). Initial velocity (0 minutes to 20+ minutes) from each reaction was determined from the slope of a plot of relative fluorescence units vs time (minutes) and then plotted against inhibitor concentration to estimate IC50 from Log [Inhibitor] vs Response, Variable Slope model in GraphPad Prism from GraphPad Software (San Diego, Calif.). […]
(§3) The reported IC50_APP and IC50 values are in units of nM.

FLT3 = molecular target: T1, FLT3 (Homo sapiens, UniProt P36888); assay: FLT-3 Omnia continuous-read kinase assay; assay type: biochemical
T1 construct: purchased PV3182
T1 sequence (P36888 27-993): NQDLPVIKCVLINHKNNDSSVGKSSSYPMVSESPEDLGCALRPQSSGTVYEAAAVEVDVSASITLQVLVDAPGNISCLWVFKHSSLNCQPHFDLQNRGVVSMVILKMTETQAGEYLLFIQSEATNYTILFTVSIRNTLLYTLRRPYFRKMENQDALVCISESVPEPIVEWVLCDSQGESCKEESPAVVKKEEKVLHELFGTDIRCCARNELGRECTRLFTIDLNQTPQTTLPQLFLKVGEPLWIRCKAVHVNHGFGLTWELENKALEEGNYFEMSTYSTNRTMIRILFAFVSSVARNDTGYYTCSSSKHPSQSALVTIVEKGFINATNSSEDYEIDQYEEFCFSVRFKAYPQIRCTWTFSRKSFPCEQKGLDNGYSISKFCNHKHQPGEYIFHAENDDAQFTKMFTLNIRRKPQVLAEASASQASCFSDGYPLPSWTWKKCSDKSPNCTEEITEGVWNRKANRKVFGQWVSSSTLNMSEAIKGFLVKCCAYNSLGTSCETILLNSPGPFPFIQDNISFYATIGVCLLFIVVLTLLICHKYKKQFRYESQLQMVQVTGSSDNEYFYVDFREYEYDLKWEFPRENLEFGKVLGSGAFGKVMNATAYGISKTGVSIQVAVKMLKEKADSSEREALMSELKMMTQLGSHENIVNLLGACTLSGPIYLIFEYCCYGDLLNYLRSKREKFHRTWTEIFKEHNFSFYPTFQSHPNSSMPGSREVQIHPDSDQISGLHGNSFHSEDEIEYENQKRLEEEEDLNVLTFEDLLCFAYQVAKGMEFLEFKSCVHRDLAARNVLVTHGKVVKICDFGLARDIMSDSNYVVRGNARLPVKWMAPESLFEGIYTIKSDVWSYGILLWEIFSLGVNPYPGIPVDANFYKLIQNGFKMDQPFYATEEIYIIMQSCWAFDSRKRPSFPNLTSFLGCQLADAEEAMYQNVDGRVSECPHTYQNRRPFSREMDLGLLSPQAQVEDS
Experimental: as §1, §2
Briefly, 10× stocks of KDR from Invitrogen or BPS Bioscience (PV3660 or 40301) and FLT-3 (PV3182) enzymes, 1.13×ATP (AS001A) and Y9-Sox or Y12-Sox peptide substrates (KCZ1001) were prepared in 1× kinase reaction buffer consisting of 20 mM Tris, pH 7.5, 5 mM MgCl2, 1 mM EGTA, 5 mM β-glycerophosphate, 5% glycerol (10× stock, KB002A) and 0.2 mM DTT (DS001A). 5 μL of enzyme were pre-incubated in a Corning (#3574) 384-well, white, non-binding surface microtiter plate (Corning, N.Y.) for 30 min at 27° C. with a 0.5 μL volume of 50% DMSO and serially diluted compounds prepared in 50% DMSO. Kinase reactions were started with the addition of 45 μL of the ATP/Y9 or Y5-Sox peptide substrate mix and monitored every 30-90 seconds for 60 minutes at λex360/λem485 in a Synergy^4 plate reader from BioTek (Winooski, Vt.). At the conclusion of each assay, progress curves from each well were examined for linear reaction kinetics and fit statistics (R^2, 95% confidence interval, absolute sum of squares). Initial velocity (0 minutes to 20+ minutes) from each reaction was determined from the slope of a plot of relative fluorescence units vs time (minutes) and then plotted against inhibitor concentration to estimate IC50 from Log [Inhibitor] vs Response, Variable Slope model in GraphPad Prism from GraphPad Software (San Diego, Calif.).
[FLT-3]=15 nM, [ATP]=500 μM and [Y5-Sox peptide]=10 μM (ATP KMapp=470 μM)
as §3

CKIT [1] = assay: cKIT washout assay in GIST882 cells (C-kit phosphorylation, western blot); assay type: cell-based; details: 1 uM for 90 minutes, then washed free of compound
Experimental: GIST882 cells (See, Bauer et al., Cancer Research, 66(18):9153-9161 (2006)) were seeded in a 6 well plate at a density of 8×10^5 cells/well in complete media. The next day cells were treated with 1 uM compound diluted in complete media for 90 minutes. After 90 minutes, the media was removed and cells were washed with compound-free media. Cells were washed every 2 hours and resuspended in fresh compound-free media. Cells were collected at specified time points, lysed in Cell Extraction Buffer (Invitrogen FNN0011) supplemented with Roche complete protease inhibitor tablets (Roche 11697498001) and phosphatase inhibitors (Roche 04 906 837 001) and lysates were sheared by passing through a 28.5 gauge syringe 10 times each. Protein concentrations were measured and 10 ug total protein lysate was loaded in each lane. C-kit phosphorylation was assayed by western blot with pTyr (4G10) antibody and total kit antibody from Cell Signaling Technology.
Sorafenib and XVIII-11 were tested for cellular activity in a GIST882 cell line at 1 micromolar. The results are depicted in FIGS. 2a and 2b where it is shown that XVIII-11 maintained c-KIT enzyme inhibition in […] cells after “washout” for at least 8 hours. […] In order to understand whether there was a prolonged inhibition with the irreversible inhibitor the cells were washed free of compound. For the reversible inhibitor, Sorafenib, the inhibitory activity of cKIT and downstream signaling was overcome whereas the irreversible inhibition of XVIII-11 persisted for at least 8 hours.

CKIT D816V = CKIT D816V (Homo sapiens, UniProt P10721, D816V); assay: c-Kit mutant Omnia kinase assay; assay type: biochemical; details: read-out: IC50_APP CKIT D816V
Chain of CKIT D816V (P10721 26-976 D816V): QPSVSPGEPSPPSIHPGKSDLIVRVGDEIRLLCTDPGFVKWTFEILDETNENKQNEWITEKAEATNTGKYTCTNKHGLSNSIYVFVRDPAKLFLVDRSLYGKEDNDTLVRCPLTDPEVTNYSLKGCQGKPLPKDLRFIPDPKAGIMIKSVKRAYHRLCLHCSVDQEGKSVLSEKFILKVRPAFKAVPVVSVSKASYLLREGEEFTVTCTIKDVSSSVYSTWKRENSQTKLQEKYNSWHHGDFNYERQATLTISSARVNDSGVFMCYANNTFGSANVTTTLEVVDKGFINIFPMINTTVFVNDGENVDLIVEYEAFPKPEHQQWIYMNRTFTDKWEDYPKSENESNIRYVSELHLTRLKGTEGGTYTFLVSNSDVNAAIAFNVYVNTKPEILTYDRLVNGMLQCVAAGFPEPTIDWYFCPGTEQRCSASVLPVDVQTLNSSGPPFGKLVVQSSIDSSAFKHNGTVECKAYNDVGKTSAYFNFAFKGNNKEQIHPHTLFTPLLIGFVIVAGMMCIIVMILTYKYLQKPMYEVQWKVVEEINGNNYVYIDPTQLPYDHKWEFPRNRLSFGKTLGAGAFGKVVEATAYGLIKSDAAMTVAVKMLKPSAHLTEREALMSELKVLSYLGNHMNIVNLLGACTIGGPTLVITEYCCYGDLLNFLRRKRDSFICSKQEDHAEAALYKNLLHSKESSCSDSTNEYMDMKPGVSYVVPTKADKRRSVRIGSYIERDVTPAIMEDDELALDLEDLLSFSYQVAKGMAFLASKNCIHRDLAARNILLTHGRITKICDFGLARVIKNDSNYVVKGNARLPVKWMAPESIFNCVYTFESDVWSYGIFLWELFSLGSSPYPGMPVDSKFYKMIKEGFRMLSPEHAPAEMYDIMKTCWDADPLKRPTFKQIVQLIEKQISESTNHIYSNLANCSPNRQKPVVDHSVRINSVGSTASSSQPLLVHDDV

PDGFRA = molecular target: T2, PDGFRA (Homo sapiens, UniProt P16234); assay: Assay for PDGFRa (Omnia); assay type: biochemical
T2 construct: purchased PV3811
T2 sequence (P16234 24-1089): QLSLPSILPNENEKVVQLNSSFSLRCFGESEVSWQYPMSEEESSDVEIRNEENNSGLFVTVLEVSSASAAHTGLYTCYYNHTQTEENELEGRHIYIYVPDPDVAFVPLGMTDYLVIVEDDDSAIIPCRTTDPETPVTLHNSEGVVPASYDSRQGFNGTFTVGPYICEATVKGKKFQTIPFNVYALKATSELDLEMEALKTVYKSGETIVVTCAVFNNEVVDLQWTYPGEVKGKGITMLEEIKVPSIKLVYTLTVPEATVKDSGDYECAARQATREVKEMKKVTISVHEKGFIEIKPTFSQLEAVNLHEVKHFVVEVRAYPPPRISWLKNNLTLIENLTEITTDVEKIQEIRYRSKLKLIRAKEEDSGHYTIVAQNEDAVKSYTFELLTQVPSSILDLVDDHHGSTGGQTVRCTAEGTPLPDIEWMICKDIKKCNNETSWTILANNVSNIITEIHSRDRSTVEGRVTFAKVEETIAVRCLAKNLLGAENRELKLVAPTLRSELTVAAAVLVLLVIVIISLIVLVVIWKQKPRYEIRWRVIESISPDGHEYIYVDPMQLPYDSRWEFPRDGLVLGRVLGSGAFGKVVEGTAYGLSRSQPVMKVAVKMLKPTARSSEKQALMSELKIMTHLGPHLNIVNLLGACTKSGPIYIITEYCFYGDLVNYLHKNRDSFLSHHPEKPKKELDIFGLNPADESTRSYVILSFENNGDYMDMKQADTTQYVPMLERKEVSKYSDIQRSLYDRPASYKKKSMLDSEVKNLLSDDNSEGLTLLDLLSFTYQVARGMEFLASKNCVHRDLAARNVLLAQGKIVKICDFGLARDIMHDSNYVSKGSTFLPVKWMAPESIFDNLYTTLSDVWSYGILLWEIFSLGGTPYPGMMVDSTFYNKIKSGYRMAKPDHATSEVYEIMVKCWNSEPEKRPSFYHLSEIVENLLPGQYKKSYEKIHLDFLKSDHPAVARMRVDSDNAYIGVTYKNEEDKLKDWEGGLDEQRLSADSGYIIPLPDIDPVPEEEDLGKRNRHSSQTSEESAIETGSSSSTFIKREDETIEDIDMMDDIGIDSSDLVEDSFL
Experimental: Briefly, 10× stock of PDGFRα (PV3811) enzyme, 1.13×ATP (AS001A) and Y12-Sox peptide substrates (KCZ1001) was prepared in 1× kinase reaction buffer consisting of 20 mM Tris, pH 7.5, 5 mM MgCl2, 1 mM EGTA, 5 mM β-glycerophosphate, 5% glycerol (10× stock, KB002A) and 0.2 mM DTT (DS001A). 5 μL of enzyme were pre-incubated in a Corning (#3574) 384-well, white, non-binding surface microtiter plate (Corning, N.Y.) for 30 min at 27° C. with a 0.5 μL volume of 50% DMSO and serially diluted compounds prepared in 50% DMSO. Kinase reactions were started with the addition of 45 μL of the ATP/Y9 or Y12-Sox peptide substrate mix and monitored every […] for 60 minutes at λex360/λem485 in a Synergy^4 plate reader from BioTek (Winooski, Vt.). At the conclusion of each assay, progress curves from each well were examined for linear reaction kinetics and fit statistics (R2, 95% confidence interval, absolute sum of squares). Initial velocity (0 minutes to 20+ minutes) from each reaction was determined from the slope of a plot of relative fluorescence units vs time (minutes) and then plotted against inhibitor concentration to estimate IC50 from log [Inhibitor] vs Response, Variable Slope model in GraphPad Prism from GraphPad Software (San Diego, Calif.).
[PDGFRα]=2-5 nM, [ATP]=60 μM and [Y9-Sox peptide]=10 μM (ATP KMapp=61 μM)
as §3

CKIT [2] = molecular target: CKIT (Homo sapiens, UniProt P10721); assay: c-Kit Omnia kinase assay; assay type: biochemical; details: reversible reference compounds; read-out: IC50 CKIT
Chain of CKIT (Homo sapiens, UniProt P10721) (P10721 26-976): as the sequence (P10721 26-976 D816V) above, with V791D counted along it

[3] = 30 min pre-incubation, read-out: IC50_APP KDR
[4] = 30 min pre-incubation, [ATP]=500 μM, read-out: IC50_APP FLT3
[5] = 30 min pre-incubation, [ATP]=60 μM, read-out: IC50_APP PDGFRA

Chain of KDR (P35968 20-1356): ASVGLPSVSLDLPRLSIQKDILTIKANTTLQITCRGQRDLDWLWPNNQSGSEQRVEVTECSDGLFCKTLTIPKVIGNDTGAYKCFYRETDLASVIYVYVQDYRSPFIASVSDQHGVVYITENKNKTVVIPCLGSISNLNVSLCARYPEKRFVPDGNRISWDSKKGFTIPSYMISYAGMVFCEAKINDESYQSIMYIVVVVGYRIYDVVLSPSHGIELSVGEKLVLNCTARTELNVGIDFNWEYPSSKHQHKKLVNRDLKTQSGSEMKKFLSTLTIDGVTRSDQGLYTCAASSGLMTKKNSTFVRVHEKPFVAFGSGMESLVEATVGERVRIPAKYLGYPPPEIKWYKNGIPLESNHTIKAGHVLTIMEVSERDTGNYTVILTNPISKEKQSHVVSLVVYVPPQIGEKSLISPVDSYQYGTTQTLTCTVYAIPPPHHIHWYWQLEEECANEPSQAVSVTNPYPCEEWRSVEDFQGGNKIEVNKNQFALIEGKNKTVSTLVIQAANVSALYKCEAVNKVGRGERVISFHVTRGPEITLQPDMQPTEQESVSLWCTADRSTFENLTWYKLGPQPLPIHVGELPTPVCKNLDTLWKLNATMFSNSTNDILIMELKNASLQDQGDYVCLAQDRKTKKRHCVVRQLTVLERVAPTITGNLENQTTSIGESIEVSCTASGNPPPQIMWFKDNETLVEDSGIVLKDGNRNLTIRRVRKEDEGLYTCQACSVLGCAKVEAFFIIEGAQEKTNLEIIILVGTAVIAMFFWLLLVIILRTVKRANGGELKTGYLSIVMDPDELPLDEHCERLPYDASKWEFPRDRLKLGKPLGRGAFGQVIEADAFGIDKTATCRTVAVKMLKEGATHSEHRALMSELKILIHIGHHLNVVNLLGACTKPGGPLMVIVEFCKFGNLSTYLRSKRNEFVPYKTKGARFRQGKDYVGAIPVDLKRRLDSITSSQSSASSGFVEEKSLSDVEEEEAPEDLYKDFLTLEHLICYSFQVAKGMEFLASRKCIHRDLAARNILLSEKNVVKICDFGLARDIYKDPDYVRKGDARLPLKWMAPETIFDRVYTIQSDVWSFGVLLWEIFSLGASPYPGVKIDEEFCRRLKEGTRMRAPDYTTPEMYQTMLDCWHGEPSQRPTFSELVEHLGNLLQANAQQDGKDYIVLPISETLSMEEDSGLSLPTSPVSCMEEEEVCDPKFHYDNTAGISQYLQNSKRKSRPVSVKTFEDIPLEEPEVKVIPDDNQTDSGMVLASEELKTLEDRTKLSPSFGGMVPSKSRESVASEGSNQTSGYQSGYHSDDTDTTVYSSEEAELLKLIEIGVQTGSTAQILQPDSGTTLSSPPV

SMILES	IC50 (KDR; [3]) [nM]	IC50 (FLT3; [4]) [nM]	duration of c-KIT inhibition after washout (CKIT [1])	IC50 (CKIT D816V) [nM]	IC50 (PDGFRA; [5]) [nM]	IC50 (PDGFRA; reversible reference compounds, read-out: IC50 PDGFRA) [nM]	IC50 (KDR; reversible reference compounds, read-out: IC50 KDR) [nM]	IC50 (FLT3; reversible reference compounds, read-out: IC50 FLT3) [nM]	IC50 (CKIT [2]) [nM]
C=CC(=O)Nc1ccc(NC(=O)Nc2ccc(Oc3ccnc(C(=O)NC)c3)cc2)cc1C(F)(F)F [XVIII-11, 4-(4-(3-(4-Acrylamido-3-(trifluoromethyl)phenyl)ureido)phenoxy)-N-methylpicolinamide]	26.9	1.99	at least 8 hours	3.42					
CNC(=O)c1cc(Oc2ccc(NC(=O)Nc3ccc(NC(=O)CCl)c(C(F)(F)F)c3)cc2)ccn1 [XVIII-13, 4-(4-(3-(4-(2-Chloroacetamido)-3-(trifluoromethyl)phenyl)ureido)phenoxy)-N-methylpicolinamide]	0.95	0.508			0.508				
CNC(=O)c1cc(Oc2ccc(NC(=O)Nc3ccc(NC(=O)C(C)Cl)c(C(F)(F)F)c3)cc2)ccn1 (centres unmarked) [XVIII-14, 4-(4-(3-(4-(2-Chloropropionamido)-3-(trifluoromethyl)phenyl)ureido)phenoxy)-N-methylpicolinamide]	6.94	107			1.54				
CCC(=O)Nc1ccc(NC(=O)Nc2ccc(Oc3ccnc(C(=O)NC)c3)cc2)cc1C(F)(F)F [Reversible Reference Compound 3, 4-(4-(3-(4-(Propionamido)-3-(trifluoromethyl)phenyl)ureido)phenoxy)-N-methylpicolinamide, reference compound]						4.15	39.4	0.461	16.3
